Data as given in PMC5048659 (Arthritis Research & Therapy, 2016).
“Also recorded” adds a separate entry of the source.

How the values were obtained:
HepG2 cells = experiment: Mitochondrial toxicity assay (JC-1 mitochondrial membrane potential); format: cell-based, human
Method: HepG2 cells were counted via hemocytometer and diluted into equal volumes of serum-free Opti-MEM (Life Technologies) and JC-1 Staining Solution (Sigma catalog number CS0390) at 300,000 cells/mL in the presence of 2.5 μg/mL JC-1. Cells were incubated at 37 °C and 5 % CO2 for 20 minutes, rinsed once with Hank's Balanced Salt Solution, and resuspended to the same concentration in serum-free Opti-MEM. Cells were then seeded into 96-well black-sided clear-bottom tissue culture plates at 30,000 cells/100 μL/well. Three replicates per experimental condition group were used. Compound was added with the final dimethyl sulfoxide (DMSO) concentration at 0.5 %. After 2 hours at 37 °C and 5 % CO2, medium was aspirated and plates were read on a Gemini EM spectrofluorometer (Molecular Devices). Fluorescence of JC-1 monomers was monitored by excitation at 490 nm and emission at 530 nm (green) and of aggregates by excitation at 525 nm and emission at 590 nm (red). The ratio of J-aggregates to monomers was calculated, with a lower ratio indicating increased cell toxicity. The percent change in mitochondrial membrane potential (Ψm) was calculated as follows: […]

[1] = cited from earlier work
PPARγ = molecular target: T1, PPARγ (Homo sapiens, UniProt P37231); experiment: Human PPARγ luciferase reporter assay; format: cell-based; details: reporter cells, 24 hours
T1 sequence (P37231 238-505 limits assumed): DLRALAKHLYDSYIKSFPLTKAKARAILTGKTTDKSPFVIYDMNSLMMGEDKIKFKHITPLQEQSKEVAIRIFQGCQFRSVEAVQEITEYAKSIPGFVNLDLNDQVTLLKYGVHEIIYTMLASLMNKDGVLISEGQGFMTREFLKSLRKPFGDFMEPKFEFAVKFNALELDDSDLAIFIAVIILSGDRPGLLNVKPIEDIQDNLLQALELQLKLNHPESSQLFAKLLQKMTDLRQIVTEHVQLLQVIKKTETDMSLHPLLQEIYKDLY
Method: This assay was performed using nonhuman mammalian cells engineered to provide a PPARγ-responsive luciferase reporter gene and constitutive, high levels of PPARγ (Indigo Biosciences catalog number IB00101). Cells were incubated with compounds for 24 hours, and then luciferase activity was measured using a luminometer. Agonist activity was reported as fold activation over a vehicle control. A positive control agonist, rosiglitazone, was included in each batch run to verify cell integrity.

GLUT9 (SLC2A9v2/GLUT9ΔN) = molecular target: T2, GLUT9 (SLC2A9v2/GLUT9ΔN) (Homo sapiens, UniProt Q9NRM0); experiment: GLUT9 urate transport in cRNA-injected oocytes; format: cell-based
T2 construct: expressed in transfected cells
T2 sequence (Q9NRM0 1-511 isoform Q9NRM0-2): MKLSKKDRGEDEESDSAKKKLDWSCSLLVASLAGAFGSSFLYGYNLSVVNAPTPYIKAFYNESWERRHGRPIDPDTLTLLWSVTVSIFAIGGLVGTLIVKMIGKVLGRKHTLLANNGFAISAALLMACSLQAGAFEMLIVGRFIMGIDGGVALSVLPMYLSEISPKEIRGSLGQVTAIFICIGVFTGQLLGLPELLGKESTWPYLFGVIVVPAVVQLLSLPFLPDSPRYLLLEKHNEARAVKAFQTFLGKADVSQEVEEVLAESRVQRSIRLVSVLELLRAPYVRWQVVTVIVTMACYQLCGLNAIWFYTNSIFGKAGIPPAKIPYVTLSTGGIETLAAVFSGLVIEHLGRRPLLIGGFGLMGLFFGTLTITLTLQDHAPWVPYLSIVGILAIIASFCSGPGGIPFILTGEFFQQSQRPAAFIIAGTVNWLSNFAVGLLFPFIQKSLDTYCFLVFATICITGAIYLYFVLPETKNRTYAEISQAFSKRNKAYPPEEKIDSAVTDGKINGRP
Method: For GLUT9, SLC2A9v2/GLUT9ΔN in pCMV6/neo was linearized with XmaI and NotI and cRNA transcribed using the mMessage mMachine T7 kit (Ambion). Oocytes were injected with either water or 25 ng cRNA and incubated for 3 to 5 days in ND96 buffer. For each point, 10 oocytes were incubated with 100 μM ^14C-uric acid in ND96 buffer with and without test compounds at room temperature for 60 minutes. The oocytes were then washed three to four times in ice-cold ND96 buffer and lysed prior to scintillation counting.

OAT4 = molecular target: T3, OAT4 (Homo sapiens, UniProt Q9NSA0); experiment: OAT4 urate transport assay in stably transfected HEK293 cells; format: cell-based; details: 100 μM 14C-urate, 10 min, OAT4-551G cells; mean ± SEM, three experiments; read-out: Potency (IC50) against OAT4
T3 sequence (Q9NSA0 with tags, fused parts or gaps): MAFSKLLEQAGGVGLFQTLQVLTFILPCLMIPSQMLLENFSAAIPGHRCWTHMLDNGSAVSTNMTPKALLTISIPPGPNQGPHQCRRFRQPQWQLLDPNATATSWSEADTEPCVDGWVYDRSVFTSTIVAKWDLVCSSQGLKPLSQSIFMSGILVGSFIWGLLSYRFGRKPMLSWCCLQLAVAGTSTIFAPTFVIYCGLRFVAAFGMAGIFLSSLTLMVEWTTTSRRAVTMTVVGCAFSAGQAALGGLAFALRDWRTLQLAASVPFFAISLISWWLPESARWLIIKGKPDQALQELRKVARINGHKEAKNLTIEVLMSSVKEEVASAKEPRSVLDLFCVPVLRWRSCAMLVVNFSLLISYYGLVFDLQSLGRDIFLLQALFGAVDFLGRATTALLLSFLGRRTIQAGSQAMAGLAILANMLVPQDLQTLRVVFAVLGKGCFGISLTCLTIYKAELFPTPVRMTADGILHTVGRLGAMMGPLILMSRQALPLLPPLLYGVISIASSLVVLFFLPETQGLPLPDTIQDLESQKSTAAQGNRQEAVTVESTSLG
Method: Stably transfected HEK293-OAT4-551G cells were used for OAT4 transport activity assays, which were grown for several weeks in media (DMEM with 10 % fetal bovine serum and 1 mM sodium pyruvate) containing 500 μg/mL geneticin sulfate. An isolated clone with high OAT4 activity was selected for activity assays. One day prior to the assay, cells were plated at 200,000 cells/well into each well of white, clear bottom poly-D-lysine-coated assay plates (BD Biosciences).
The cells were assayed on the following day. […] The free urate was removed by aspiration and the cells rinsed three times in 150 μL wash buffer. The cells were then subjected to liquid scintillation counting to measure transported urate. […] Each point represents the mean and standard error of the mean (SEM) from triplicates.

PPARγ activation (PPARγ; at 300 μM)	PPARγ activation (PPARγ; up to 100 μM)	Compound	Lowest concentration reducing mitochondrial membrane potential (HepG2 cells; HepG2, 2 hours)	EC50 (HepG2 cells; Homo sapiens, HepG2, 2 hours, read-out: Half maximal effective concentration for reduction of mitochondrial membrane potential)	Estimated plasma concentration [1]	Urinary excretion [1]	PPARγ activation (PPARγ; at 30 μM)	IC50 (GLUT9 (SLC2A9v2/GLUT9ΔN); 100 μM 14C-uric acid, 60 min, read-out: Potency against GLUT9)	Effect on GLUT9 urate transport (GLUT9 (SLC2A9v2/GLUT9ΔN); compound at up to 100 μM)	IC50 (OAT4)	Mitochondrial toxicity (HepG2 cells; HepG2, up to 300 μM)
–	–	CCc1oc2ccccc2c1C(=O)c1cc(Br)c(O)c(Br)c1 [Benzbromarone]	0.4 µM	1.36 µM	0.016 to 0.16 µM	6%	strongly activated	~100 µM	only weak activity; also recorded: inhibited	3.19 ± 1.04 µM	–
slight PPARγ activation	no activation	CCCN(CCC)S(=O)(=O)c1ccc(C(=O)O)cc1 [Probenecid]	–	–	–	–	–	–	–	–	no mitochondrial toxicity
